The values that follow come from patent US4734435A, “N-[[6-methoxy-5-(trifluoromethyl)-1-naphthalenyl]-thioxome thyl]-N-methylglycine S-oxide and the amide thereof” (American Home Products Corp., priority 1986, dated 1988).

Series [1] has as its system galactitol accumulation in the lenses and sciatic nerves. As to the kind of experiment: In vivo lowering of dulcitol (galactitol) accumulation in galactosemic rats. On the set-up: species or system rat (male, Sprague-Dawley). The following applies: for effect on accumulation of galactitol in the lenses and sciatic nerves (in words): rats fed galactose. The text has this:
The aldose reductase inhibiting property of the compounds of this invention and the utilization of the compounds in preventing, diminishing and alleviating diabetic complications are demonstrable in experiments using galactosemic rats, see Dvornik et al, cited above. Such experiments are exemplified hereinbelow after the listing of the following general comments pertaining to these experiments:
(a) Four or more groups of six male rats, 50-70 g, Sprague-Dawley strain, were used. The first group, the control group, was fed a mixture of laboratory chow (rodent Laboratory Chow, Purina) and glucose at 20% (w/w %) concentration. The untreated galactosemic group and the drug-treated groups were fed a similar diet in which galactose is substituted for glucose. The test compound was either admixed to the diet or administered by gavage. In experiments involving compound administration in the diet, the average dose administered was calculated from the actual food intake of the animals in each group. The concentration of galactose in the diet of the treated groups was the same as that for the untreated galactosemic group.
(b) After four days, the animals were killed by decapitation. The eyeballs were removed and punctured with a razor blade; the freed lenses were rolled gently on filter paper and weighed. The sciatic nerves were dissected as completely as possible and weighed. Both tissues when frozen can be kept up to two weeks before being analyzed for galactitol.
(c) The polyol determination was performed by a modification of the procedure of M. Kraml and L. Cosyns, Clin. Biochem., 2, 373 (1969). Only two minor reagent changes were made: (a) The rinsing mixture was an aqueous 5% (w/v) trichloroacetic acid solution and (b) the stock solution was prepared by dissolving 25 mg of dulcitol in 100 mL of an aqueous trichloroacetic acid solution. [N.B.: For each experiment the average value found in the tissue from rats fed the glucose diet was subtracted from the individual values found in the corresponding tissue in galactose-fed rats to obtain the amount of polyol accumulated.] The aldose reductase inhibiting effects of the compounds of formula (I) were also tested by employing an in vitro testing procedure similar to that described by S. Hayman and J. H. Kinoshita, J. Biol. Chem., 240, 877 (1965). In the present case the procedure of Hayman and Kinoshita was modified in that the final chromatography step was omitted in the preparation of the enzyme from bovine lens.
The figures under L and N represent the percentage decrease of galactitol accumulation in the tissues of the lens and sciatic nerve, respectively, for treated rats as compared to untreated rats.

The target of a further series is T1, aldose reductase (Bos taurus, UniProt P16116).
T1 construct: preparation of the enzyme from bovine lens; from tissue; host or cells: bovine lens
Nature of the series: In vitro inhibition of aldose reductase from bovine lens (modified Hayman and Kinoshita procedure). The following applies: 10^-7 M; enzyme from bovine lens. The series is classed as biochemical. As to the method:
Only two minor reagent changes were made: (a) The rinsing mixture was an aqueous 5% (w/v) trichloroacetic acid solution and (b) the stock solution was prepared by dissolving 25 mg of dulcitol in 100 mL of an aqueous trichloroacetic acid solution. [N.B.: For each experiment the average value found in the tissue from rats fed the glucose diet was subtracted from the individual values found in the corresponding tissue in galactose-fed rats to obtain the amount of polyol accumulated.] […] In the present case the procedure of Hayman and Kinoshita was modified in that the final chromatography step was omitted in the preparation of the enzyme from bovine lens.

A short description of series [2]: Metabolites of tolrestat found in humans and other mammals. The format is in vivo.
[3] abbreviates: lens, 50 mg/kg/day, gavage (same experiment), four days.
The mark [4] stands for this setting: sciatic nerve, 50 mg/kg/day, gavage (same experiment), four days.

On to `COc1ccc2c(C(=O)N(C)CC(=O)O)cccc2c1C(F)(F)F` [N--[[6-methoxy-5-(trifluoromethyl)-1-naphthalenyl]carbonyl]-N--methylglycine, reference compound], for which the “% lowering dulcitol accumulation in vivo, L (lens)” value in series [1] (setting [3]) was found to be 0%. Moreover, the “% lowering dulcitol accumulation in vivo, N (sciatic nerve)” value in series [1] (setting [4]) was 59%.

Turning to `COc1ccc2c(C(=S)N(C)CC(=O)O)cccc2c1C(F)(F)F` [tolrestat, N-[[6-methoxy-5-(trifluoromethyl)-1-naphthalenyl]thioxomethyl]-N-methylglycine, reference compound], in series [1] (lens, 10 mg/kg/day, gavage (same experiment), four days), the “% lowering dulcitol accumulation in vivo, L (lens)” value turned out to be 0%. The “% lowering dulcitol accumulation in vivo, N (sciatic nerve)” value in series [1] (sciatic nerve, 10 mg/kg/day, gavage (same experiment), four days) was 81%.

As to `COc1ccc2c(C(=S=O)N(C)CC(N)=O)cccc2c1C(F)(F)F` [[[[6-Methoxy-5-(trifluoromethyl)-1-naphthalenyl]thioxomethyl]methylamino]-acetamide S-oxide], the inhibition (as a rule, the relative decrease from the control value, in per cent) at 0.1 µM against aldose reductase stood at 3%. Also, the “% lowering dulcitol accumulation in vivo, L (lens)” value amounted to 0% in series [1] (58 mg/kg/day, 96 h) and 0% in series [1] (lens, 12 mg/kg/day, mode of administration not given, four days). The “% lowering dulcitol accumulation in vivo, N (sciatic nerve)” value in series [1] (58 mg/kg/day, 96 h) worked out at 77%; in series [1] (sciatic nerve, 12 mg/kg/day, mode of administration not given, four days) it was 45%. Also, the “comparison with tolrestat at 10 mg/kg/day (in words)” value in series [1] (at a dose of 58 mg/kg/day) was “comparable results”. In addition, the “effect on accumulation of galactitol in the lenses and sciatic nerves (in words)” value in series [1] was “diminish the accumulation of galactitol in the lenses and sciatic nerves of rats fed galactose”.

With `COc1ccc2c(C(=S=O)N(C)CC(=O)O)cccc2c1C(F)(F)F` [N-[[6-Methoxy-5-(trifluoromethyl)-1-naphthalenyl]thioxomethyl]-N-methylglycine S-oxide], the “occurrence as metabolite of tolrestat (in words)” value in series [2] is “one of the metabolites of tolrestat found in humans and other mammals”. In addition, 0.1 µM produced 80% inhibition on aldose reductase. In addition, the “comparison with tolrestat at 10 mg/kg/day (in words)” value in series [1] (at a dose of 50 mg/kg/day) is reported as “comparable results”. The “% lowering dulcitol accumulation in vivo, L (lens)” value in series [1] (lens, 20 mg/kg/day, diet, four days) is on record as 0%; in series [1] (setting [3]), 0%; in series [1] (lens, 115 mg/kg/day, diet, four days) it was 20%. Besides, the “effect on accumulation of galactitol in the lenses and sciatic nerves (in words)” value in series [1] was “diminish the accumulation of galactitol in the lenses and sciatic nerves of rats fed galactose”. In addition, the “% lowering dulcitol accumulation in vivo, N (sciatic nerve)” value in series [1] (sciatic nerve, 20 mg/kg/day, diet, four days) was determined as 45%; in series [1] (setting [4]), 70%; in series [1] (sciatic nerve, 115 mg/kg/day, diet, four days) it was 100%.
